Tests used:
[1] = system: calluses of the mutant ghy; test: Redifferentiation from calluses with plant hormones; format: cell-based, Chenopodium quinoa
Protocol: A medium was produced by partially modifying spinach redifferentiation medium composition reported in the literature (Jinhua Bao (2009) Establishment of Transformation System for Spinach based on Agrobacterium Method and Introduction of Useful Gene, Chiba University Graduate School doctoral dissertation), and was used in the experiment (Table 2). Non-transformed calluses induced from seedling sections of the Kd variety were cultured under preset conditions shown in Table 13. A “+” group for the redifferentiation inducing light condition was cultured in an incubator at 20° C. under 8-h light/16-h dark conditions, and a “−” group was placed in a steel can in an incubator under the same conditions, and was cultured under a light-shielding condition. In groups with GA concentrations of 1 and 2, non-transformed calluses were plated on redifferentiation media supplemented with gibberellin at 1 mg/L and 2 mg/L, respectively.
Transformed calluses were successfully formed in the mutant ghy variety incapable of synthesizing betalain pigments. In view of this, an attempt was made to induce redifferentiation from calluses of the mutant ghy. 2,4-Dichlorophenoxyacetic acid (2,4-D) serving as a plant hormone having an auxin-like action, and benzyladenine and kinetin each serving as a plant hormone having a cytokinin-like action were combined at various concentrations, and redifferentiation was attempted. […] In addition, when the concentrations of both of 2,4-D and the cytokinin-like plant hormone (benzyladenine or kinetin) were increased, hard and rounded calluses were obtained. […] However, redifferentiation of any other organ was not found.

[2] = system: quinoa (Kd, ghy, rebc, and ghy/rebc); test: Floral dip/non-cutting-sealing method using improved bacterium, GUS staining of female organs; format: in vivo, Chenopodium quinoa; settings: mutant ghy/rebc
Protocol: Bacteria used in the experiment were streaked on LB solid medium supplemented with 100 mg/L kanamycin and 100 mg/L hygromycin, and was cultured at 26° C. under a 24-h dark condition for 2 days (Table 3). The proliferated bacteria were transferred to 50 mL of LB liquid medium supplemented with 100 mg/L kanamycin and 100 mg/L hygromycin (in a 300 mL Erlenmeyer flask), and were cultured using a shaking thermostatic water bath BW201 under the conditions of 26° C., about 24 hours, and about 130 rpm. After the culture, the bacterial culture suspension (OD600=about 2.0) was transferred to a 50 mL conical tube, and centrifuged using Mx-301 Highspeed Refrigerated Micro Centrifuge (10 minutes, […]). The supernatant was discarded, followed by addition of 20 mL of a 5% (w/v) sucrose solution containing Silwet L-77 and resuspension using VORTEX-GENIE 2 to produce a bacterial suspension (results shown in Example 1 and results shown in Example 3 were obtained by inoculation experiments using Silwet L-77 at 0.02% (v/v) and 0.04% (v/v), respectively). At the time of inoculation with the bacterial suspension, quinoa to be used was placed in a sealed container (Mippail (Fuji System Pack, Tokyo, Japan)) filled with water, and the bacterial suspension was dropped onto an ear using P200 Pipetman (Gilson, Manhattan, NY, USA). […]

In the case of `c1coc(CNc2ncnc3[nH]cnc23)c1` [kinetin], the “Elongation of adventitious roots” value ([1]; medium containing only 1 mg/L kinetin) is reported as “showed remarkable elongation of adventitious roots”.
`CC1=CC(=O)CC(C)(C)[C@@]1(O)/C=C/C(C)=C\C(=O)O` [ABA, Abscisic acid] was tested, and the “Individuals exhibiting female organ-specific GUS expression” value ([2]; 500 mM ABA added to suspension of MAFF311303pTiMAFF301276ΔT-DNA, without cutting-sealing) was 60% and the “Female organ-specific GUS expression ratio relative to the case of adding no ABA” value ([2]; 500 mM ABA vs no ABA) was 6 times.
`O=C(O)COc1ccc(Cl)cc1Cl` [2,4-D, 2,4-Dichlorophenoxyacetic acid] was tested, and the “Redifferentiation of adventitious roots” value ([1]; medium containing only 0.01 mg/L or 0.1 mg/L 2,4-D) was “adventitious roots were redifferentiated”.
`c1ccc(CNc2ncnc3nc[nH]c23)cc1` [benzyladenine] was tested, and the Colour of calluses ([1]; calluses plated in media containing the hormone) was “turned darker green” and the “Redifferentiation of adventitious roots” value ([1]; medium containing only 1 mg/L or 2 mg/L benzyladenine) was “adventitious roots were redifferentiated”.
